For this assay, the target named is T1, FimH-CRD (Escherichia coli, UniProt P08191).
T1 construct: The first 177 amino acids of the FimH protein; thrombin tag (printed as 'fusion protein with thrombin') (cleaved yes); made in house; host or cells: bacteria (pET21b plasmid)
T1 sequence (P08191 22-177): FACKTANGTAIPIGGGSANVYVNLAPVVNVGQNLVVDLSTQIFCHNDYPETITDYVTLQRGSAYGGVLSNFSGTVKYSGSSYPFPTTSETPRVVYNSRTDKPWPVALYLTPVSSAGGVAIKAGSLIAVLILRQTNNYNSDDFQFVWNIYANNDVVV
Kind of assay: Competitive binding assay by fluorescence polarization, assay 1 (compounds prepared by manual serial dilution). As to the method:
The first 177 amino acids of the FimH protein were expressed as a fusion protein with thrombin in a pET21b plasmid in bacteria. This FimH protein sequence contains the carbohydrate recognition domain (CRD) and shall be termed FimH-CRD. Following bacterial expression of the protein, the FimH-CRD protein was purified to homogeneity and the thrombin tag removed by protease cleavage. A competitive binding assay by fluorescence polarization was performed using 5 nM of the Alexa 647 mannoside probe and 60 nM of the FimH-CRD. The samples are assayed in a low volume 384 well microtiter plate in a final volume of 20 μl. The final assay buffer conditions are the following, 50 mM Tris-Cl, ph 7.0, 100 mM NaCl, 1 mM EDTA, 5 mM β-mercaptoethanol, 0.05% BSA and 2.5% DMSO. Two assays are performed for FimH, termed assay 1 or assay 2. The assay conditions are the same for both assays except the following: assay 1 has compounds prepared by manual dilution in a serial dilution factor with 12-point dose response while assay 2 has compounds prepared by a robotics system also through a serial dilution factor (12 point dose response) and initially prepared in duplicate in 384 well-Corning polypropylene round bottom plates. The assay 2 plates have compound which is then frozen and must be thawed prior to use. Initially the Alexa 647 probe and the FimH-CRD are added to the assay buffer and then 0.5 μl of test compound (assay 1 or 2) between 0.4 nM to 75 μM final concentration are added (12 point titration with 3-fold serial dilution). Control wells for the Alexa 647 probe are prepared with the same conditions except for the addition of the FimH-CRD protein. Plates are then incubated for 5 hrs at room temperature in the dark and under humid conditions to prevent drying. Plates are read using the SpectraMax Paradigm multi-mode plate reader and the appropriate fluorescent polarization detection cartridge (Alexa-647).
Alexa 647 mannoside probe is prepared using the similar procedure reported for FAM mannoside (Han, Z. et. al., 2010, J. Med. Chem., 53, 4779) and is described in the scheme below.
To a blue colored stirred solution of (2S,3S,4S,5S,6R)-2-(4-aminobutoxy)-6-(hydroxymethyl)tetrahydropyran-3,4,5-triol (2.21 mg, 0.009 mmol) and the (2E)-2-[(2E,4E)-5-[3,3-dimethyl-5-sulfonato-1-(3-sulfonatopropyl)indol-1-ium-2-yl]penta-2,4-dienylidene]-3-[6-(2,5-dioxopyrrolidin-1-yl)oxy-6-oxo-hexyl]-3-methyl-1-(3-sulfonatopropyl)indoline-5-sulfonate (Potassium Ion (3)) (4.9 mg, 0.0044 mmol) in DMF (44 μL) is added Et3N (5.4 mg, 7.0 μL, 0.053 mmol) at RT. The solution is stirred at room temperature over night, concentrated, dissolved in water and purified on 12 g C-18 silica gel cartridge on Isolera system using acetonitrile in water (0 to 40%, 10 CV) and followed by lyophilization to afford Alexa 647 mannoside probe (3.3 mg, 34%) as deep blue solid.
The Kd values of the compounds are determined from dose response curves using twelve concentrations per compound in duplicate. Curves are fitted to data points using Fluorescence Polarization competitive displacement analysis, and Kds are interpolated from the resulting curves using GraphPad Prism software, version […] (GraphPad software Inc., San Diego, Calif., USA).
The IC50 is the concentration needed to halve the response being measured. Usually Kd stands for the concentration at which binding is half-saturated. The low end stands for a tighter complex, the high end for a looser complex. In the case of `OC[C@H]1O[C@H](O[C@@H]2[C@H](O)[C@@H](c3cccc(O)c3)O[C@H](CO)[C@H]2O)[C@@H](O)[C@@H](O)[C@@H]1O` [Compound 265, (2R,3S,4S,5S,6R)-2-[(2R,3R,4R,5R,6R)-3,5-Dihydroxy-2-(hydroxymethyl)-6-(3-hydroxyphenyl)tetrahydropyran-4-yl]oxy-6-(hydroxymethyl)tetrahydropyran-3,4,5-triol], the IC50 was 162 nM and the Kd was 52.1 ± 13.8 nM.

Molecule `CS(=O)(=O)c1ccc(-c2cccc([C@H]3O[C@H](CO)[C@@H](O)[C@H](O[C@H]4O[C@H](CO)[C@@H](O)[C@H](O)[C@@H]4O)[C@@H]3O)c2)cc1` [Compound 276, (2R,3S,4S,5S,6R)-2-[(2R,3R,4R,5R,6R)-3,5-dihydroxy-2-(hydroxymethyl)-6-[3-(4-methylsulfonylphenyl)phenyl]tetrahydropyran-4-yl]oxy-6-(hydroxymethyl)tetrahydropyran-3,4,5-triol] came in with an IC50 of 49 nM and a Kd of 11.1 ± 3.4 nM.

In turn, `O=C(NC1CC1)c1cccc([C@H]2O[C@H](CO)[C@@H](O)[C@H](O)[C@@H]2O)c1` [Compound 36, N-cyclopropyl-3-((2R,3S,4R,5S,6R)-3,4,5-trihydroxy-6-(hydroxymethyl)tetrahydro-2H-pyran-2-yl)benzamide] had an IC50 of 168 nM and a dissociation constant (Kd) of 53.2 ± 6.5 nM.

The molecule `CNC(=O)c1ccc(Oc2cccc([C@H]3O[C@H](CO)[C@@H](O)[C@H](O)[C@@H]3O)c2)cc1` [Compound 3, N-methyl-4-[3-[(2R,3S,4R,5S,6R)-3,4,5-trihydroxy-6-(hydroxymethyl)tetrahydropyran-2-yl]phenoxy]benzamide] came in with an IC50 of 39 nM and a Kd of 7.2 ± 1.1 nM.

On to `CNC(=O)c1ccc(-c2cccc([C@H]3O[C@H](CO)[C@@H](O)[C@H](O[C@H]4O[C@H](CO)[C@@H](O)[C@H](O)[C@@H]4O)[C@@H]3O)c2)cc1` [Compound 275, 4-[3-[(2R,3R,4R,5R,6R)-3,5-Dihydroxy-6-(hydroxymethyl)-4-[(2R,3S,4S,5S,6R)-3,4,5-trihydroxy-6-(hydroxymethyl)tetrahydropyran-2-yl]oxy-tetrahydropyran-2-yl]phenyl]-N-methyl-benzamide], for which the concentration for half-maximal inhibition (IC50) stood at 28 nM and the dissociation constant (Kd) worked out at 26.8 ± 15.4 nM.

`COC(=O)CCc1ccc(OC)c([C@H]2O[C@H](CO)[C@@H](O)[C@H](O)[C@@H]2O)c1` [Compound 42, Methyl 3-(4-methoxy-3-((2R,3S,4R,5S,6R)-3,4,5-trihydroxy-6-(hydroxymethyl)tetrahydro-2H-pyran-2-yl)phenyl)propanoate] displayed an IC50 of 225 nM and a Kd of 58.4 ± 9.8 nM.

For the molecule `CNC(=O)c1cc(C(=O)NC)cc(-c2cccc([C@H]3O[C@H](CO)[C@@H](O)[C@H](O[C@H]4O[C@H](CO)[C@@H](O)[C@H](O)[C@@H]4O)[C@@H]3O)c2)c1` [Compound 277, 5-[3-[(2R,3R,4R,5R,6R)-3,5-Dihydroxy-6-(hydroxymethyl)-4-[(2R,3S,4S,5S,6R)-3,4,5-trihydroxy-6-(hydroxymethyl)tetrahydropyran-2-yl]oxy-tetrahydropyran-2-yl]phenyl]-N1,N3-dimethyl-benzene-1,3-dicarboxamide], the concentration for half-maximal inhibition (IC50) stood at 47 nM and binding was characterised by a dissociation constant (Kd) of 10.7 ± 3.9 nM.

`Cc1nnc(-c2ccc(C#Cc3cccc([C@H]4O[C@H](CO)[C@@H](O)[C@H](O)[C@@H]4O)c3)cc2)o1` [Compound 133, (2R,3S,4R,5S,6R)-2-(hydroxymethyl)-6-[3-[2-[4-(5-methyl-1,3,4-oxadiazol-2-yl)phenyl]ethynyl]phenyl]tetrahydropyran-3,4,5-triol] returned an equilibrium dissociation constant (Kd) of 6.1 ± 1.4 nM.

`CC(=O)Nc1cccc(-c2cccc([C@H]3O[C@H](CO)[C@@H](O)[C@H](O)[C@@H]3O)c2)c1` [Compound 7, N-[3-[3-[(2R,3S,4R,5S,6R)-3,4,5-trihydroxy-6-(hydroxymethyl)tetrahydropyran-2-yl]phenyl]phenyl]acetamide] registered an IC50 of 70 nM and a Kd of 14.3 ± 9.1 nM.

As to `C=CC[C@H]1O[C@H](CO)[C@@H](O)[C@H](O[C@H]2O[C@H](CO)[C@@H](O)[C@H](O)[C@@H]2O)[C@@H]1O` [Compound 281, (2R,3S,4S,5S,6R)-2-[(2R,3R,4R,5R,6R)-2-Allyl-3,5-dihydroxy-6-(hydroxymethyl)tetrahydropyran-4-yl]oxy-6-(hydro I amymethyl)tetrahydropyran-3,4,5-triol], the 50% inhibitory concentration (IC50) came to 216 nM and binding was put at a Kd of 51.1 ± 7.6 nM.

`O=C(Nc1ccc2[nH]ccc2c1)c1cccc([C@H]2O[C@H](CO)[C@@H](O)[C@H](O)[C@@H]2O)c1` [Compound 27, N-(1H-indol-5-yl)-3-((2R,3S,4R,5S,6R)-3,4,5-trihydroxy-6-(hydroxymethyl)tetrahydro-2H-pyran-2-yl)benzamide]: the half-maximal inhibitory concentration (IC50) is 138 nM and the Kd came to 37 ± 3.1 nM.

Molecule `CCCc1ccc(NC(=O)c2cccc([C@H]3O[C@H](CO)[C@@H](O)[C@H](O)[C@@H]3O)c2)cc1` [Compound 31, N-(4-propylphenyl)-3-((2R,3S,4R,5S,6R)-3,4,5-trihydroxy-6-(hydroxymethyl)tetrahydro-2H-pyran-2-yl)benzamide] registered an IC50 of 84 nM and a dissociation constant (Kd) of 22.8 ± 0.9 nM.

`COC(=O)c1cccc(-c2ccc([C@H]3O[C@H](CO)[C@@H](O)[C@H](O)[C@@H]3O)cc2)c1` [Compound 294, methyl 4′-((2R,3S,4R,5S,6R)-3,4,5-trihydroxy-6-(hydroxymethyl)tetrahydro-2H-pyran-2-yl)-[1,1′-biphenyl]-3-carboxylate] had a Kd of 11 ± 3 nM.

`OC[C@H]1O[C@H](c2cccc(O)c2)[C@@H](O)[C@@H](O)[C@@H]1O` [Compound 1, (2R,3S,4R,5S,6R)-2-(hydroxymethyl)-6-(3-hydroxyphenyl)tetrahydropyran-3,4,5-triol] had an IC50 of 53 nM and a Kd of 12.3 ± 5.1 nM.

Molecule `OC[C@H]1O[C@H](c2cccc(-c3ccsc3)c2)[C@@H](O)[C@@H](O)[C@@H]1O` [Compound 8, (2R,3S,4R,5S,6R)-2-(hydroxymethyl)-6-[3-(3-thienyl)phenyl]tetrahydropyran-3,4,5-triol] returned an IC50 of 155 nM and an equilibrium dissociation constant (Kd) of 40.1 ± 17.1 nM.

As to `COC(=O)Cc1cccc(-c2cccc([C@H]3O[C@H](CO)[C@@H](O)[C@H](O)[C@@H]3O)c2)c1` [Compound 65, Methyl 2-(3′-((2R,3S,4R,5S,6R)-3,4,5-trihydroxy-6-(hydroxymethyl)tetrahydro-2H-pyran-2-yl)-[1,1′-biphenyl]-3-yl)acetate], the concentration for half-maximal inhibition (IC50) came out at 18 nM and binding was characterised by a dissociation constant (Kd) of 5.2 ± 0.1 nM.

Take `O=C(Nc1cccs1)Oc1cccc([C@H]2O[C@H](CO)[C@@H](O)[C@H](O)[C@@H]2O)c1` [Compound 69, 3-((2R,3S,4R,5S,6R)-3,4,5-trihydroxy-6-(hydroxymethyl)tetrahydro-2H-pyran-2-yl)phenyl thiophen-2-ylcarbamate]: the concentration for half-maximal inhibition (IC50) was found to be 66 nM and the Kd came out at 13.1 ± 0.7 nM.

In the case of `CNC(=O)COc1cccc([C@H]2O[C@H](CO)[C@@H](O)[C@H](O[C@H]3O[C@H](CO)[C@@H](O)[C@H](O)[C@@H]3O)[C@@H]2O)c1` [Compound 288, 2-[3-[(2R,3R,4R,5R,6R)-3,5-dihydroxy-6-(hydroxymethyl)-4-[(2R,3S,4S,5S,6R)-3,4,5-trihydroxy-6-(hydroxymethyl)tetrahydropyran-2-yl]oxy-tetrahydropyran-2-yl]phenoxy]-N-methyl-acetamide], the IC50 was found to be 46 nM and the Kd was 28.7 ± 25.6 nM.

For `O=C(Nc1cccnc1)c1cccc([C@H]2O[C@H](CO)[C@@H](O)[C@H](O)[C@@H]2O)c1` [Compound 29, N-(pyridin-3-yl)-3-((2R,3S,4R,5S,6R)-3,4,5-trihydroxy-6-(hydroxymethyl)tetrahydro-2H-pyran-2-yl)benzamide], the half-inhibitory concentration (IC50) is 59 nM and the affinity, expressed as Kd, was 18.1 ± 5.9 nM.

Consider `OC[C@H]1O[C@H](c2cccc(-c3ccc4c(c3)OCO4)c2)[C@@H](O)[C@@H](O)[C@@H]1O` [Compound 11, (2R,3S,4R,5S,6R)-2-[3-(1,3-benzodioxol-5-yl)phenyl]-6-(hydroxymethyl)tetrahydropyran-3,4,5-triol], for which the half-maximal inhibitory concentration (IC50) came to 88 nM and the affinity, expressed as Kd, was 11.9 ± 7.3 nM.
